Values quoted from earlier work, collected in US20060147526A1, “Pharmaceutical formulations comprising ß-2 adrenoreceptor agonists and xanthines” (CIPLA LIMTED, priority 2002, published 2006).

Experiments:
[1] = in vivo
[2] = inhalation

SMILES	duration of action [1]	persistent bronchodilation lasting [2]
CN(C)C(=O)Oc1cc(OC(=O)N(C)C)cc(C(O)CNC(C)(C)C)c1 (centres unmarked) [bambuterol, 5-[2-(tert-butylamino)-1-hydroxyethyl]-m-phenylene-bis(dimethylcarbamate)]	24 h	
OCc1cc(C(O)CNCCCCCCOCCCCc2ccccc2)ccc1O (centres unmarked) [salmeterol]		over 12 hours
